According to PMC5986078 (Clinical cancer research : an official journal of the …, 2017):

Legend:
GSC811 xenograft = assay: Patient-derived GSC811 intracranial xenograft in mice; format: in vivo, mouse; settings: TMZ 4 mg/kg oral daily x5, onalespib 30 mg/kg iv day 16 and 19; vs vehicle
U251HF-GFP xenograft = assay: Orthotopic intracranial zebrafish glioma xenograft; settings: TMZ 10 μM, onalespib 0.5 μM in fish water, 5-10 dpt
[1] = system: LN229, U251HF and A172 cells; assay: Colony forming assay; format: cell-based, human; settings: 0.4 μM for 24 h, colonies after 10 days
CD133, Nestin, Olig2 = assay: Stem cell marker expression in GSC11 and GSC23; format: cell-based, human
GSC20 (MES) = assay: WST-1 viability assay in glioma stem cells; format: cell-based, human; settings: GSC20, highest concentrations of onalespib
HSP90 [2] = assay: HSP70 immunoblot as biomarker of HSP90 inhibition in glioma cell lines; format: cell-based, human; settings: LN229, U251HF, A172; 0.1, 0.2, 0.4 μM, 48 h
[3] = Brain and plasma pharmacokinetics by LC-MS/MS after iv bolus; format: in vivo, mouse; settings: 30 mg/kg iv single dose
[4] = system: LN229, U251HF and A172 cells; assay: Apoptosis: annexin V/PI flow cytometry and caspase-3/7 activation; format: cell-based, human
U251HF cells = assay: WST-1 proliferation assay; format: cell-based; settings: Homo sapiens, 72 h, read-out: IC50, proliferation (WST assay)
[5] = system: endothelial cells exposed to conditioned medium of LN229, U251HF and A172 cells; format: cell-based; settings: 0.4 μM for 24 h
A172 cells = assay: WST-1 proliferation assay; format: cell-based; settings: Homo sapiens, A 172, 72 h, read-out: IC50, proliferation (WST assay)
EGFRvIII = assay: Immunoblot in U87 cells expressing mutant EGFRvIII; format: cell-based, human; settings: 0.1, 0.2, 0.4 μM
GSC2 (MES) = assay: WST-1 viability assay in glioma stem cells; format: cell-based, human; settings: GSC2, highest concentrations of onalespib
LN229 cells = assay: WST-1 proliferation assay; format: cell-based; settings: Homo sapiens, LN-229, 72 h, read-out: IC50, proliferation (WST assay)
GSC11 (PN) = assay: WST-1 viability assay in glioma stem cells; format: cell-based, human; settings: GSC11, highest concentrations of onalespib
GSC23 (PN) = assay: WST-1 viability assay in glioma stem cells; format: cell-based, human; settings: GSC23, highest concentrations of onalespib
[6] = system: HSP90 / EGFR pathway in GSC11 and GSC23; assay: Immunoblot of HSP70 and EGFR pathway in GSC11 and GSC23 neurospheres; format: cell-based, human; settings: GSC11 and GSC23, 48 h
p-STAT3 = p-STAT3 immunoblot in MES and PN GSC lines; format: cell-based, human; settings: 48 h
[7] = system: U251HF, LN229 and A172 cells; assay: Wound healing; format: cell-based, human; settings: 0.4 μM, 24 h, vs untreated controls
EGFR signaling pathway = assay: Immunoblot of EGFR-AKT-ERK-S6 signaling in glioma cell lines; format: cell-based, human
HSP90 [8] = assay: HSP70 immunohistochemistry of brain tissue as marker of HSP90 inhibition in vivo; parameters: species or system mouse; settings: 30 mg/kg iv, 0-24 h, vs vehicle treated mice
GSC lines = assay: Transwell migration; format: cell-based, human

## Cn1nnc2c(C(N)=O)ncn2c1=O [TMZ, temozolomide]
GSC811 xenograft
  survival: did not extend survival
U251HF-GFP xenograft
  tumor burden: moderate reductions

## CC(C)c1cc(C(=O)N2Cc3ccc(CN4CCN(C)CC4)cc3C2)c(O)cc1O [onalespib, (2,4-dihydroxy-5-isopropylphenyl)-[5-(4-methylpiperazin-1-ylmethyl)-1,3-dihydroisoindol-2-yl]methanone]
[1]
  colony formation (proliferative capacity): significantly inhibited
CD133, Nestin, Olig2
  expression of stem cell markers CD133 and Nestin: dose-dependent decrease
GSC20 (MES)
  viability (lost to): 50%
HSP90 [2]
  HSP70 levels (marker of HSP90 inhibition): increase in HSP70 levels in cells in a dose-dependent manner
[3]
  brain Cmax relative to plasma Cmax (fold lower): 4.7 fold
  overall brain exposure versus plasma: greater than of plasma
[3]; each time point from 2 h up to 24 h
  onalespib level in brain tissue versus plasma: higher in brain tissue compared to the plasma
[4]; increasing concentrations of onalespib
  activation of caspase-3 and caspase-7: dose-dependent activation
[4]; increasing concentrations, 48 h
  percentage of annexin positive cells: increase
U251HF cells
  IC50: ≤ 250 nM
[5]
  number of microtubules formed by endothelial cells in response to CM: strongly inhibited
A172 cells
  IC50: ≤ 250 nM
EGFRvIII
  depletion of mutant EGFRvIII and downstream intermediates: equally effective
GSC811 xenograft
  survival: did not extend survival
GSC2 (MES)
  viability (lost to): 50%
U251HF-GFP xenograft
  survival: extended survival
  tumor burden: moderate reductions
LN229 cells
  IC50: ≤ 250 nM
GSC11 (PN)
  loss of viability: over 90%
GSC23 (PN)
  loss of viability: 50%
[6]
  HSP70 levels in GSC: characteristic increase
  levels of total EGFR, pEGFR in GSC: steep declines
p-STAT3
  p-STAT3: inhibited
[7]
  cell migration, wound healing: reduced ability to migrate
EGFR signaling pathway; 0.4 μM, up to 24 h
  EGFR level, time course: time-dependent decline
EGFR signaling pathway; U251HF, LN229, A172, 0.1-0.4 μM, 48 h
  levels of EGFR, p-EGFR, phospho- and total AKT, ERK1/2 and S6: robust dose-dependent decrease
HSP90 [8]
  percentage and intensity of HSP70 pixels in brain tissue: increase
GSC lines
  invasive ability, transwell migration: markedly decreased
